Data reported in ChEMBL document CHEMBL5033996, “Design, Synthesis, and Bioactivity Evaluation of Dual-Target Inhibitors of Tubulin and Src Kinase Guided by Crystal Structure” (J Med Chem, 2021).

Assays:
[1] = Half life in Sprague-Dawley rat at 5 mg/kg, po measured up to 24 hrs by LC/MS/MS analysis; format: ADME, organism-based; conditions: in vivo
K562 = test: Antiproliferative activity against human K562 cells assessed as inhibition of cell proliferation measured after 72 hrs by MTT assay; format: functional, cell-based; conditions: K562, 72 h
[2] = Oral bioavailability in Sprague-Dawley rat at 5 mg/kg measured up to 24 hrs by LC/MS/MS analysis; format: ADME, organism-based; conditions: in vivo
[3] = Toxicity in C57 mouse at 40 mg/kg, po administered twice daily; format: organism-based; conditions: in vivo
[4] = Intrinsic clearance in human liver microsomes; format: ADME, Microsome
[5] = target: Focal adhesion kinase 1 (Homo sapiens) (UniProt Q05397); test: Inhibition of FAK phosphorylation at […] residue in human SK-OV-3 cells incubated for 24 hrs by Western blot analysis; format: cell-based
Focal adhesion kinase 1 (Homo sapiens), sequence (Q05397 2-1052 limits assumed): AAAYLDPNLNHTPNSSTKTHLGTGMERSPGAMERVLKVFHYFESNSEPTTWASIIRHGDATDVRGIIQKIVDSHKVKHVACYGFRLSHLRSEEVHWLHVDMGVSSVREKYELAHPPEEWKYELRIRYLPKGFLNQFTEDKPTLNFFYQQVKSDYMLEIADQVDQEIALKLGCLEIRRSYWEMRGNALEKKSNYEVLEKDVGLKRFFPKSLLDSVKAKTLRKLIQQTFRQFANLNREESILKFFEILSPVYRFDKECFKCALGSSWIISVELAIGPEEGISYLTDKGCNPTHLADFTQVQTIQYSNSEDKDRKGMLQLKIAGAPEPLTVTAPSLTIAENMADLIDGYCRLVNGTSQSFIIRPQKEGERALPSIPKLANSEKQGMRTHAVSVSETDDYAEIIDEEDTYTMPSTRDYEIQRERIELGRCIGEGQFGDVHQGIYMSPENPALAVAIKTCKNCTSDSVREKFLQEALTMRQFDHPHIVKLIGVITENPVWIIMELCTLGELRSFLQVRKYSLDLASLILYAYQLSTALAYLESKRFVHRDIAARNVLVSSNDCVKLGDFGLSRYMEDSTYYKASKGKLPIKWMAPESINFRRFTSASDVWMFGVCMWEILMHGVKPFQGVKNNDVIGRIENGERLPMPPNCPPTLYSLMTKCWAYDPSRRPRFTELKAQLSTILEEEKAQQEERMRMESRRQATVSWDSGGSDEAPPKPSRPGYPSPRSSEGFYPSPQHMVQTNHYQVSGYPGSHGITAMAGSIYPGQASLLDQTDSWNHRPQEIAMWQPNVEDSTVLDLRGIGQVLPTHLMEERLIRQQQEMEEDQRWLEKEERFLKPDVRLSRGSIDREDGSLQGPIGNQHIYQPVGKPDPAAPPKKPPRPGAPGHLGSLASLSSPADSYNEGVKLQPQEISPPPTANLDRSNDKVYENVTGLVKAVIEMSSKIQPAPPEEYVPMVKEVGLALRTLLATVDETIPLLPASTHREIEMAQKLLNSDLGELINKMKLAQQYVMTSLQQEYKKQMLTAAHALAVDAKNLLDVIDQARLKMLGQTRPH

Ramos = test: Antiproliferative activity against human Ramos cells assessed as inhibition of cell proliferation measured after 72 hrs by MTT assay; format: functional, cell-based
[6] = target: Proto-oncogene tyrosine-protein kinase Src (Homo sapiens) (UniProt P12931); test: Inhibition of Src kinase phosphorylation at Tyr416/419 residue in human SK-OV-3 cells incubated for 24 hrs by Western blot analysis; format: cell-based
Proto-oncogene tyrosine-protein kinase Src (Homo sapiens), sequence (P12931 2-536 limits assumed): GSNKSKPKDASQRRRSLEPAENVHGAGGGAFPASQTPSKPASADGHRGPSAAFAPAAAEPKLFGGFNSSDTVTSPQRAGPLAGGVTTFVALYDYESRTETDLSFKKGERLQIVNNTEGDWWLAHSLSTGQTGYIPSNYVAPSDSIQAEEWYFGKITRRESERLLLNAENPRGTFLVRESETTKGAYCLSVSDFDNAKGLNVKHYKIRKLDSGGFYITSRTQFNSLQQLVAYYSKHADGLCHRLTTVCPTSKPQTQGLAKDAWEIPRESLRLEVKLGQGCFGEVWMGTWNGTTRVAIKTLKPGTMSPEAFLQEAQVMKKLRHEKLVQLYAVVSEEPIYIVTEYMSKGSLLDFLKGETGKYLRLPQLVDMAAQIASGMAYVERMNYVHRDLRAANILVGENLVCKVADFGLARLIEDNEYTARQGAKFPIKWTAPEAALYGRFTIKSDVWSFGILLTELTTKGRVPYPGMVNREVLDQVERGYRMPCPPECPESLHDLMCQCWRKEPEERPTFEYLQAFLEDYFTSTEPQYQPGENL

[7] = Clearance in Sprague-Dawley rat at 5 mg/kg, po measured up to 24 hrs by LC/MS/MS analysis; format: ADME, organism-based; conditions: in vivo
[8] = Antitumor activity against mouse C26 cells xenografted in BALB/c mouse assessed as tumor growth inhibition at 10 mg/kg, po measured every 2 days for 10 days by vernier caliper analysis relative to control; format: functional; conditions: 240 h, time 10 day, read-out: TGI
[9] = Tmax in Sprague-Dawley rat at 5 mg/kg, po measured up to 24 hrs by LC/MS/MS analysis; format: ADME, organism-based; conditions: in vivo
[10] = Half life in human liver microsomes; format: ADME, Microsome
[11] = Cmax in Sprague-Dawley rat at 5 mg/kg, po measured up to 24 hrs by LC/MS/MS analysis; format: ADME, organism-based; parameters: route oral, dose 5 mg/kg, time <=24; conditions: in vivo
[12] = Toxicity in BALB/c mouse xenografted with mouse C26 cells assessed as death at 10 mg/kg, po measured every 2 days for 10 days; format: organism-based; conditions: in vivo, 240 h, time 10 day
SK-OV-3 [13] = test: Antiproliferative activity against human SK-OV-3 cells assessed as inhibition of cell proliferation measured after 72 hrs by MTT assay; format: functional, cell-based; conditions: SK-OV-3, 72 h
Tubulin = test: Binding affinity to tubulin (unknown origin) assessed as dissociation constant by tryptophan based binding assay; format: protein-complex assay, Homo sapiens
[14] = AUC (0 to t) in Sprague-Dawley rat at 5 mg/kg, po measured up to 24 hrs by LC/MS/MS analysis; format: ADME, organism-based; parameters: route oral, dose 5 mg/kg, time <=24; conditions: in vivo
[15] = Toxicity in C57 mouse at 10 mg/kg, po administered twice daily; format: organism-based; conditions: in vivo
SK-OV-3 [16] = test: Induction of cell cycle arrest in human SK-OV-3 cells assessed as accumulation of cells at G0/G1 phase at 10 nM incubated for 24 hrs by PI staining based flow cytometry analysis (reference value: 49.60 %); format: functional
SK-OV-3 [17] = test: Induction of cell cycle arrest in human SK-OV-3 cells assessed as accumulation of cells at S phase at 100 nM incubated for 24 hrs by PI staining based flow cytometry analysis (reference value: 21.4 %); format: functional
SK-OV-3 [18] = test: Induction of cell cycle arrest in human SK-OV-3 cells assessed as accumulation of cells at G0/G1 phase at 100 nM incubated for 24 hrs by PI staining based flow cytometry analysis (reference value: 49.60 %); format: functional
SK-OV-3 [19] = test: Induction of cell cycle arrest in human SK-OV-3 cells assessed as accumulation of cells at S phase at 10 nM incubated for 24 hrs by PI staining based flow cytometry analysis (reference value: 21.4 %); format: functional
SK-OV-3 [20] = test: Induction of cell cycle arrest in human SK-OV-3 cells assessed as accumulation of cells at G2/M phase at 10 nM incubated for 24 hrs by PI staining based flow cytometry analysis (reference value: 28.94%); format: functional
SK-OV-3 [21] = test: Induction of cell cycle arrest in human SK-OV-3 cells assessed as accumulation of cells at S phase at 20 nM incubated for 24 hrs by PI staining based flow cytometry analysis (reference value: 21.4 %); format: functional
SK-OV-3 [22] = test: Induction of cell cycle arrest in human SK-OV-3 cells assessed as accumulation of cells at G0/G1 phase at 20 nM incubated for 24 hrs by PI staining based flow cytometry analysis (reference value: 49.60 %); format: functional
SK-OV-3 [23] = test: Induction of cell cycle arrest in human SK-OV-3 cells assessed as accumulation of cells at G2/M phase at 100 nM incubated for 24 hrs by PI staining based flow cytometry analysis (reference value: 28.94%); format: functional
[24] = Antitumor activity against human SK-OV-3 cells xenografted in nude mouse assessed as tumor growth inhibition at 10 mg/kg, po measured every 3 days for 1 month by vernier caliper analysis relative to control; format: functional; conditions: SK-OV-3, po, 730 h, time 1 months, read-out: TGI
[25] = Toxicity in mouse xenografted with human SK-OV-3 cells assessed as effect on body weight at 10 mg/kg, po administered for 30 days; format: organism-based; conditions: in vivo, 720 h, time 30 day
SK-OV-3 [26] = test: Induction of cell cycle arrest in human SK-OV-3 cells assessed as accumulation of cells at G2/M phase at 20 nM incubated for 24 hrs by PI staining based flow cytometry analysis (reference value: 28.94%); format: functional

half-life [1] [min] | IC50 (K562) [nM] | bioavailability [2] [%] | CLH [4] [mL·min/g] | IC50 (Ramos) [nM] | CL/F [7] [mL/min/kg] | Tmax [9] [min] | half-life [10] [min] | Cmax [11] [ng/mL] | IC50 (SK-OV-3 [13]) [nM] | Kd (Tubulin) [nM] | AUC(0-t) at 24 h [14] [ng·h/mL] | SMILES | inhibition [5] | inhibition [6] | inhibition in vivo at 10 mg/kg [8] [%] | also measured
305 | 1.4 | 79.9 | 26.6 | 1.6 | 25.8 | 42 | 52.1 | 742 | 0.6 | 300 | 4180 | O=C(Cc1ccc(-c2ccc(OCCN3CCN(C(=O)[C@@H]4C[C@@H]4F)CC3)cc2)cn1)NCc1ccccc1 | Dose-Dependent Effect | Dose-Dependent Effect | – | Activity [15]: Toxic
740 | 18.2 | 34.9 | 31.4 | 15.7 | 88.5 | 15 | 44.1 | 431 | 6.8 | 1110 | 840 | O=C(Cc1ccc(-c2ccc(OCCN3CCOCC3)cc2)cn1)NCc1ccccc1 [TIRBANIBULIN] | – | – | 51 | Activity (SK-OV-3 [16]): 46.66%; Activity (SK-OV-3 [17]): 20.2%; Activity (SK-OV-3 [18]): 15.39%; Activity (SK-OV-3 [19]): 19.33%; Activity (SK-OV-3 [20]): 34.01%; Activity (SK-OV-3 [21]): 19.58%; Activity (SK-OV-3 [22]): 40.07%; Activity (SK-OV-3 [23]): 64.41%; inhibition in vivo at 10 mg/kg [24]: 42%; Activity [25]: Non-Toxic; Activity (SK-OV-3 [26]): 40.35%

SMILES | half-life [1] [min] | IC50 (K562) [nM] | bioavailability [2] [%] | CLH [4] [mL·min/g] | IC50 (Ramos) [nM] | CL/F [7] [mL/min/kg] | Tmax [9] [min] | half-life [10] [min] | Cmax [11] [ng/mL] | IC50 (SK-OV-3 [13]) [nM] | Kd (Tubulin) [nM] | AUC(0-t) at 24 h [14] [ng·h/mL] | inhibition [5] | inhibition [6] | inhibition in vivo at 10 mg/kg [8] [%] | also measured
O=C(Cc1ccc(-c2ccc(OCCN3CCN(C(=O)C4CC4)CC3)cc2)cn1)NCc1ccccc1 | 158 | 2.5 | 52.2 | 36 | 1.3 | 55.7 | 49.8 | 38.5 | 593 | 1.1 | 290 | 1620 | Dose-Dependent Effect | Dose-Dependent Effect | 73 | Activity [3]: Non-Toxic; Activity [12]: Toxic
